The results in this text go back to US20160368868A1, “N-(1-CYANO-2-HYDROXY-1-METHYL-ETHYL)-4-(TRIFLUOROMETHYLSULFANYL)BENZAMIDE DERIVATIVES FOR USE AS NEMATOCIDAL DRUGS” (UNIVERSITÄT ZÜRICH Prorektorat MNW, priority 2013, published 2016).

One assay relates to Dirofilaria immitis. Description: Activity in vitro against Dirofilaria immitis microfilariae (motility). Type of assay: cell-based. To be noted: at up to 10 μg/mL; efficacy in percent reduced motility of microfilariae; 48 hours at 26° C.
The test system of a further assay is H. contortus. Description: Larval development assay (LDA). To be noted: for LD50 against H. Contortus: larval development assay, L3 counted after 7 days; for inhibition of the development of H. contortus larvae: at concentrations between 100 μM and 25 μM.
In another assay the test system is HeLa. Description: Resazurin fluorometric cell viability assay, HeLa. The settings on record: Homo sapiens, 48 h, read-out: IC50 in HeLa. In general terms: Resazurin is reduced to fluorescent resorufin, in cell work by metabolically active cells.
Another assay relates to MRC-5. Description: Resazurin fluorometric cell viability assay, MRC-5. The settings on record: Homo sapiens, MRC5, 48 h, read-out: IC50 in MRC-5.

Some results are limits rather than exact numbers.

Description for HeLa: (§1) The toxicity towards a human cervical cancer HeLa and a non-cancerous (MRC-5) cell line was determined using the fluorometric cell viability assay (Resazurin) (Ahmed et al., J. Immunol. Methods 1994, 170, 211.), results of which are shown in Table 1.
(§2) Human cervical carcinoma cells (HeLa) cells were cultured in DMEM (Gibco) supplemented with 5% fetal calf serum (FCS, Gibco), 100 U/ml penicillin, 100 μg/ml streptomycin at 37° C. and 5% CO2. The normal human fetal lung fibroblast MRC-5 cell line was maintained in F-10 medium (Gibco) supplemented with 10% FCS (Gibco), penicillin (100 U/ml), and streptomycin (100 μg/ml). Cytotoxicity studies were performed on two different cell lines, namely HeLa, and MRC-5, by a fluorometric cell viability assay using Resazurin (Promocell GmbH). Briefly, one day before treatment, cells were seeded in triplicates in 96-well plates at a density of 4×10^3 cells/well for HeLa and 7×10^3 for MRC-5 in 1041.1 growth medium. Upon treating cells with increasing concentrations of Fc-PZQ derivatives for 48h, the medium was removed, and 100 μl complete medium containing Resazurin (0.2 mg/ml final concentration) were added. After 4h of incubation at 37° C., fluorescence of the highly red fluorescent product Resorufin was quantified at 590 nm emission with 540 nm excitation wavelength in a SpectraMax M5 microplate Reader.
Description for MRC-5: as §1, §2

For the compound `CC(C#N)(COC(=O)c1ccccc1)NC(=O)c1ccc(SC(F)(F)F)cc1` (centres unmarked), in the assay on Dirofilaria immitis, the “Activity against Dirofilaria immitis” value is “EC6 at up to 10 μg/mL”.

Consider `C#CC(=O)OCC(C)(C#N)NC(=O)c1ccc(SC(F)(F)F)cc1` (centres unmarked), for which the “Activity against Dirofilaria immitis” value in the assay with Dirofilaria immitis is “EC15 at 0-10 μg/mL”.

In the case of `CC(C#N)(CO)NC(=O)c1ccc([S+]([O-])C(F)(F)F)cc1` (centres unmarked), in the assay with Dirofilaria immitis, the “Activity against Dirofilaria immitis” value is recorded as “EC5 at up to 10 μg/mL”.

`CC(C#N)(CO)NC(=O)c1ccc(S(=O)(=O)C(F)(F)F)cc1` (centres unmarked): in the assay with Dirofilaria immitis, the “Activity against Dirofilaria immitis” value is “EC15 at up to 10 μg/mL”.

As for `CC(C#N)(CO)NC(=O)c1ccc(C(F)(F)F)cc1` (centres unmarked), the “Activity against Dirofilaria immitis” value in the assay with Dirofilaria immitis is given as “EC25 at up to 10 μg/mL”.

For the compound `CSc1ccc(C(=O)NC(C)(C#N)CO)cc1` (centres unmarked), in the assay on Dirofilaria immitis, the “Activity against Dirofilaria immitis” value is on record as “EC15 at up to 10 μg/mL”.

With `CC(C#N)(CO)NC(=O)c1ccc(F)cc1` (centres unmarked), the “Activity against Dirofilaria immitis” value in the assay on Dirofilaria immitis is “EC20 at up to 10 μg/mL”.

Turning to `CC(C#N)(CO)NC(=O)c1ccc(I)cc1` (centres unmarked), in the assay with Dirofilaria immitis, the “Activity against Dirofilaria immitis” value is “EC15 at up to 10 μg/mL”.

As a reminder, the IC50 is the concentration that inhibits the measured activity by half. For `C[C@](C#N)(COc1cc(C#N)ccc1C(F)(F)F)NC(=O)c1ccc(SC(F)(F)F)cc1` [Zolvix, Monepantel, reference compound], in the assay with H. contortus, the “LD50 against H. Contortus” value was less than 41 nM. Also, the IC50 with HeLa was determined as 34.1 µM; in the assay with MRC-5 it was 63.9 µM.

In the case of `CC(=O)OCC(C)(C#N)NC(=O)c1ccc(SC(F)(F)F)cc1` (centres unmarked) [ahpOH1, 2-Cyano-2-(4-((trifluoromethyl)thio)benzamido)propyl acetate], in the assay on H. contortus, the “inhibition of the development of H. contortus larvae” value is “severely and reproducibly inhibited”; the “LD50 against H. Contortus” value is recorded as 550 nM. Besides, the IC50 in the assay on HeLa is more than 100 µM. The IC50 in the assay on MRC-5 was more than 100 µM.

As for `CC(C#N)(CO)NC(=O)c1ccc(SC(F)(F)F)cc1` (centres unmarked) [ahpOH, N-(2-cyano-1-hydroxypropan-2-yl)-4-((trifluoromethyl)thio)benzamide], in the assay with H. contortus, the “inhibition of the development of H. contortus larvae” value was “severely and reproducibly inhibited”; the “LD50 against H. Contortus” value was 173 nM. Besides, in the assay on HeLa, the IC50 was more than 100 µM. Also, the IC50 with MRC-5 is more than 100 µM.

As to `CC(C#N)(CO)NC(=O)c1ccc(SC(F)(F)F)cc1` (centres unmarked) [drawing 36], in the assay with Dirofilaria immitis, the “Activity against Dirofilaria immitis” value is “EC20 at up to 10 μg/mL”.
